≈ marks a conversion by molar mass, not a printed value. Where two headings read alike, the source gives them in different places. Marks after values point to notes of the source that are not given here.
Columns and labels:
[1] = cited from earlier work; for SPF: commercial organic UV-filters, lower limit for commercial sunscreen 6
[2] = DPPH assay (reducing activity); assay type: biochemical
Experimental: Reducing activity of compounds 1–3 and crude extract on the 1,1′-diphenyl-2-picrylhydrazyl free radical (DPPH) and scavenging activity on superoxide anion were measured as previously described. Briefly, the scavenging activity of the lichen compounds on DPPH was measured using the Matsukawa method with some modifications. A reaction mixture containing 100 µL of DPPH (0.5 mM) in methanol and 10 µL of the lichen compound solutions in DMSO to give final concentrations of 19, 56, 167 and 500 µg/mL per well, was distributed in each microplate well. To allow results comparison and due to the presence of extract, concentrations are expressed in µg/mL. The absorbances were recorded at 540 nm after 30 min.
(§1) For both assays, each concentration and all tests were done in triplicate and the results averaged. Ascorbic acid was used as a positive control. The percentage inhibition at steady state for each dilution was used to calculate the IC50 values. This gave the amount of antioxidant required (measured as the concentration of the stock solution added to the reaction mixture) to either scavenge 50% of O2^− or 50% of DPPH radicals: the lower the values, the higher the scavenging activity towards O2^−.

[3] = NBT assay (superoxide anion scavenging, non-enzymatic NADH/PMS); assay type: biochemical
Experimental: Measurements of superoxide anion scavenging activity in 96-well microplates was based on the non-enzymatic method previously described with some modifications. The reaction mixture in the sample wells consisted of NADH (78 µM), nitro-blue tetrazolium (NBT) (50 µM), phenazine methosulfate (PMS) (10 µM), and lichen compounds (10, 20, 40, 80 µg/mL). The reagents were dissolved in 16 mM tris-hydrochloride buffer, at pH = 8 except for all the lichen compounds/extract which were dissolved in DMSO. After 5 min of incubation at room temperature, the spectrophotometric measurement was performed at 560 nm against blanks (without PMS nor sample).
as §1

HaCaT cells [4] = assay: Cytotoxic and photocytotoxic activities before and after UVA irradiation; assay type: cell-based, human; settings: for IC50: Homo sapiens, light or radiation study; for Photo-Irritancy Factor (PIF), formal PIF: formal PIF = *1.0 = Cmax(−UV)/Cmax(+UV)
Experimental: Briefly, 100 µL per well of a cell suspension of HaCaT cells (ATCC) at 120,000 cells/mL were maintained in a RPMI culture medium with 5% of calf serum at 37 °C under 5% CO2 for 24 h for formation of monolayers. At t = 24 h, two 96-well plates per test chemical were preincubated for 1 h with seven different concentrations of the tested compounds and extract (ranging from 1 µg/mL to 200 µg/mL). Chlorpromazine was used as the positive control. To allow results comparison and due to the presence of extract, concentrations are expressed in µg/mL.
For both assays, each concentration and all tests were done in triplicate and the results averaged. The percentage inhibition at steady state for each dilution was used to calculate the IC50 values.

[5] = Stability of photoprotection indexes after UVA or UVB irradiation; assay type: physicochemical; settings: for photostability: UVA and UVB
Experimental: One hundred eighty microliters of solution in 96-well plates were irradiated by UVA (2 J/cm^2) or UVB ([…]). The absorbances were then recorded and photoprotective indexes were calculated as described above. The stability was evaluated by comparison between indexes described previously (Section 3.5.1) and obtained before and after irradiation. Two independently prepared solutions were studied and OMC was used as a positive control.

[6] = In vitro screening method for sun protection indexes (SPF, PF-UVA, λc, ISP, SUI) from UV absorbance 290–400 nm; assay type: physicochemical
Experimental: Photoprotective effectiveness is evaluated through photoprotective indexes such as SPF, PF-UVA, and critical wavelength (λc) (an indicator of the filter capacity to protect in the UVA range), as well as Spectral Uniformity Index (SUI) and Ideal Spectral Profile (ISP), two indexes recently defined by Diffey to focus on protection across the entire ultraviolet spectrum. They calculate the goodness of fit of the spectral profile to the ideal flat profile. SPF and PF-UVA measure the filter efficacy against UVB or UVA. SPF measurement is currently determined in vivo through determination of the erythemal reaction on human volunteers. For economical and ethical reasons, many alternative in vitro methods have been developed to measure SPF and also PF-UVA, λc or SUI and ISP. Unfortunately, despite concerted efforts around the globe between different commissions, none of them guarantees a good correlation with in vivo measurements. Moreover, all these in vitro methods require an amount of active raw material generally ≥100 mg and prevent the evaluation of compounds in minute amounts. The photoprotective indexes have been then determined thanks to a new method (see SM) especially developed to cope with the low availability of the compounds. Twelve commercial organic UV-filters, the photoprotective indexes of which were published (Table S3 in SM), encompassing a 1–24 SPF range were used for the development. It can be noted that the SPF values of benzophenone-3 (oxybenzone), PEG-25 PABA, homosalate, polysilicone 15 and 4-Methylbenzylidene Camphor are under 6, the value commonly accepted as the lower limit for commercial sunscreen. However, the efficient value of commercialized emulsion can be explained by the formulation of several organic and mineral filters. The similarity of the results (r^2 = 0.98 for published SPF vs. herein SPF, see Figure S1 in SM) supported the new method validity. Routinely, ethylhexyl methoxycinnamate (OMC) was used as positive control. Based on the SPF, λc, PF-UVA, SUI and ISP values obtained with marketed organic filters and on their UV range protection (Table S3 in SM), a decision tree was built to categorize the filters (Figure 3). Considering the herein SPF values of the filters cited above (around 2), the first condition to select a candidate is SPF > 2. Restricted UVA or UVB filters can be discriminated through the λc value (>370 nm) and PF-UVA (>2) for UVA and SUI (>1.2) and ISP (<90) for UVB. A large spectral protection (UVA + UVB) could be evaluated by combining the four criteria.
A new in vitro screening method based on spectrophotometric data was used to evaluate sun protection indexes such as SPF, PF-UVA, the critical wavelength λc, ISP and SUI. Its development was first conducted in a cuvette using twelve commercial organic filters encompassing a large range of SPF values (1 < SPF < 25) and then transposed in a 96-wells plate. Following the International recommendations, maximal concentrations never overtook 10% whatever the commercial filters or the lichens extracts or compounds considered. This new method faces some product availability limitation, which is a common shortcoming for natural products or metabolites (see all development in SM).
The scheme of solution preparation to record the experimental values is depicted in Figure 9. The sample (S4) was prepared at 0.02 mg/mL from stock solutions of filter candidate (S2) and of emulsion (S1) (See emulsion preparation in SM) taking into account the maximal concentration. The experimental absorbances Aλ were recorded in the 290–400 nm range versus a blank solution (S3) in a cuvette with a double beam spectrophotometer or in a 96-wells plate filled with 180 µL of solution by well. […] The diagram is described for final volumes of 50 mL, 100 µL, 25 mL and 25 mL for S1, S2, S3 and S4 solutions, respectively. Smaller volumes can easily be prepared. Solutions S2 and S4 were prepared in duplicate. […]

[7] = NBT antioxidant assay of compounds in combination (isobologram, combination index); assay type: biochemical
Experimental: For each drug ratio (Tables S5 and S6 in SM), the antioxidant inhibition was evaluated as previously described (2.6.1).
The antagonistic, synergistic or additive effect of the combination depends on the combination index value (CI) (Equation (1)). […] (IC50)X is the value of the IC50 of compound X alone.
For both assays, each concentration and all tests were done in triplicate and the results averaged.

HaCaT cells [8] = settings: human
Experimental: For each drug ratio (Tables S7 and S8 in SM), the cytotoxicity was evaluated as previously described (2.7.1).
For both assays, each concentration was done in triplicate and the results averaged.

[9] = parameters: method as in earlier work; settings: ref 37 (Rancan); cited from earlier work
[10] = HaCaT cells, with UVA irradiation, read-out: IC50 ± SD With Irradiation
[11] = HaCaT cells, without irradiation, read-out: IC50 ± SD Without Irradiation
[12] = before irradiation, new in vitro method

Cc1ccc(/C=C2/C(=O)C3(C)CCC2C3(C)C)cc1 (stereo not drawn) [4-Methylbenzylidene Camphor]
SPF [1]: under 6

O=C1O[C@H]([C@@H](O)CO)C(O)=C1O [Ascorbic acid, reference compound]
DPPH Assay IC50 ± SD [2]: 12.5 ± 0.5 µg/mL | NBT Assay IC50 ± SD [3]: 3.0 ± 0.4 µg/mL

CN(C)CCCN1c2ccccc2Sc2ccc(Cl)cc21 [Chlorpromazine, reference compound]
IC50 (HaCaT cells [4]; [10]): 2.4 ± 0.3 µg/mL (≈ 7.53 µM) | IC50 (HaCaT cells [4]; [11]): 13.2 ± 1.7 µg/mL (≈ 41.4 µM) | Photo-Irritancy Factor (PIF) (HaCaT cells [4]; PIF = IC50(−UV)/IC50(+UV), PIF < 5 no phototoxic potential): 5.5 ^d

CCCCC(CC)COC(=O)C=Cc1ccc(OC)cc1 (stereo not drawn) [OMC, ethylhexyl methoxycinnamate, reference compound]
decrease in indexes after irradiation ([5]; UVA or UVB irradiation): 25% | ISP (Ideal Spectral Profile) ([6]; before irradiation): 105% | PF-UVA ([6]; before irradiation): 1.6 | SUI (Spectral Uniformity Index) ([6]; before irradiation): 1.1 | critical wavelength (λc) ([6]; before irradiation): 330 nm | SPF [6, 12]: 10.4 | SPF ([6]; cuvette, dissolved in DMSO): 10.1 | SPF ([6]; cuvette, dissolved in THF): 9.6

COC(=O)/C(=C1/OC(=O)C(c2ccc(OC)cc2)=C1O)c1ccccc1 [Pinastric acid, pinastric acid]
DPPH Assay IC50 ± SD [2]: 80.0 ± 8.0 µg/mL | photostability [5]: photostable in the UVA and UVB ranges | Superoxide anion scavenging activity (% inhibition) ([7]; Table S7, pinastric acid alone 17.5 µg/mL): 25.0% | Superoxide anion scavenging activity (% inhibition) ([7]; Table S7, pinastric acid alone 35.0 µg/mL): 37.0% | Superoxide anion scavenging activity (% inhibition) ([7]; Table S7, pinastric acid alone 52.5 µg/mL): 44.0% | Superoxide anion scavenging activity (% inhibition) ([7]; Table S7, pinastric acid alone 70.0 µg/mL): 50.0% | NBT Assay IC50 ± SD [3]: 70.0 ± 23.0 µg/mL | IC50 (HaCaT cells [4]; [10]): > 200 µg/mL | IC50 (HaCaT cells [4]; [11]): > 200 µg/mL | Photo-Irritancy Factor (PIF), formal PIF (HaCaT cells [4]): *1.0 ^c | ISP (Ideal Spectral Profile) ([6]; before irradiation): 61% | PF-UVA ([6]; before irradiation): 1.8 | SUI (Spectral Uniformity Index) ([6]; before irradiation): 1.9 | critical wavelength (λc) ([6]; before irradiation): 386 nm | SPF [6, 12]: 4.1

COC(=O)/C(=C1/OC(=O)C(c2ccccc2)=C1O)c1ccccc1 [Vulpinic acid, vulpinic acid]
DPPH Assay IC50 ± SD [2]: 55.0 ± 8.0 µg/mL | photostability [5]: photostable in the UVA and UVB ranges | Superoxide anion scavenging activity (% inhibition) ([7]; Table S6, vulpinic acid alone 7.5 µg/mL): 22.0% | Superoxide anion scavenging activity (% inhibition) ([7]; Table S6, vulpinic acid alone 15.0 µg/mL): 30.0% | Superoxide anion scavenging activity (% inhibition) ([7]; Table S6, vulpinic acid alone 22.5 µg/mL): 42.0% | Superoxide anion scavenging activity (% inhibition) ([7]; Table S6, vulpinic acid alone 30.0 µg/mL): 50.0% | NBT Assay IC50 ± SD [3]: 30.0 ± 3.0 µg/mL | IC50 (HaCaT cells [4]; [10]): > 200 µg/mL | IC50 (HaCaT cells [4]; [11]): > 200 µg/mL | Photo-Irritancy Factor (PIF), formal PIF (HaCaT cells [4]): *1.0 ^c | ISP (Ideal Spectral Profile) ([6]; before irradiation): 19% | PF-UVA ([6]; before irradiation): 3.9 | SUI (Spectral Uniformity Index) ([6]; before irradiation): 7.6 | Percentage of cytotoxicity (HaCaT cells [8]; 5 µg/mL): 0.0% | Percentage of cytotoxicity (HaCaT cells [8]; 20 µg/mL): 0.0%

CCCCC(CC)COc1ccc(-c2nc(-c3ccc(OC)cc3)nc(-c3ccc(OCC(CC)CCCC)cc3O)n2)c(O)c1 (stereo not drawn) [anisotriazine, Bis-Ethylhexyloxyphenol Methoxytphenyl Triazine, reference compound]
published SPF ([1]; reference value, ref 6–8 of supplement): 23.9 | SPF ([6]; cuvette, dissolved in DMSO): 1.8

COc1ccc(C(=O)c2ccccc2)c(O)c1 [benzophenone-3 (oxybenzone), benzophenone-3]
SPF [1]: under 6

CC1CC(OC(=O)c2ccccc2O)CC(C)(C)C1 (stereo not drawn) [homosalate]
SPF [1]: under 6

PEG-25 PABA
SPF [1]: under 6

usnic acid
DPPH Assay IC50 ± SD [2]: >500.0 µg/mL | variation in the SPF values after UVA irradiation ([5]; UVA 2 J/cm^2): +17% | photostability [5]: photostable in the UVA and UVB ranges | Superoxide anion scavenging activity (% inhibition) ([7]; Table S6, usnic acid alone 6.0 µg/mL): 32.0% | Superoxide anion scavenging activity (% inhibition) ([7]; Table S6, usnic acid alone 12.0 µg/mL): 40.0% | Superoxide anion scavenging activity (% inhibition) ([7]; Table S6, usnic acid alone 18.0 µg/mL): 46.0% | Superoxide anion scavenging activity (% inhibition) ([7]; Table S6, usnic acid alone 24.0 µg/mL): 50.0% | Superoxide anion scavenging activity (% inhibition) ([7]; Table S7, usnic acid alone 6.0 µg/mL): 32.0% | Superoxide anion scavenging activity (% inhibition) ([7]; Table S7, usnic acid alone 12.0 µg/mL): 40.0% | Superoxide anion scavenging activity (% inhibition) ([7]; Table S7, usnic acid alone 18.0 µg/mL): 46.0% | Superoxide anion scavenging activity (% inhibition) ([7]; Table S7, usnic acid alone 24.0 µg/mL): 50.0% | NBT Assay IC50 ± SD [3]: 24.0 ± 9 µg/mL | in vivo SPF [9]: 4.1 | IC50 ± SD With Irradiation (HaCaT cells [4]; HaCaT cells, with UVA irradiation): 47.0 ± 10.0 µg/mL | IC50 ± SD Without Irradiation (HaCaT cells [4]; HaCaT cells, without irradiation): 33.0 ± 2.0 µg/mL | phototoxic potential (HaCaT cells [4]; from PIF, human keratinocyte cell line, UVA): no phototoxic potential | ISP (Ideal Spectral Profile) ([6]; before irradiation): 53% | PF-UVA ([6]; before irradiation): 1.8 | critical wavelength (λc) ([6]; before irradiation): 364 nm | SPF [6, 12]: 3.9

Reference: publication PMC6152234, “Specialized Metabolites of the Lichen Vulpicida pinastri Act as Photoprotective Agents” (Molecules : A Journal of Synthetic Chemistry and Natural …, 2017)
